Results on 2 compounds are retold here after patent US7208514B2, “Tumorigenesis inhibitor” (Mitsubishi Pharma Corporation, priority 2003, dated 2007).

For series [1], the system named is lipid peroxide production in homogenate of the brain. Nature of the series: Examination of antioxidative effect (thiobarbituric acid reaction product, lipid peroxide, in brain homogenate). Format: biochemical, Wistar rat. As for the experimental part:
The absorbance of a thiobarbituric acid reaction product (lipid peroxide) generated 1 hr after the incubation was measured.

In series [2] the test system is azoxymethane-induced aberrant crypt foci in colon. The experiment in a line: Suppressive effect on the formation of azoxymethane-induced aberrant crypt foci in colon. Format: in vivo, male ICR mice. The settings on record: for number of colonic ACF / body weight: mean ± standard error; for number of colonic ACF: control 10.3 ± 1.7; for body weight: mixed diet for 5 weeks, azoxymethane-treated mice.

Series [3] concerns dimethylhydrazine-induced colonic ACF and colonic mucosal cell growth. The experiment in a line: Suppressive effect on the formation of dimethylhydrazine-induced colonic ACF and cancer cell growth. Format: in vivo, male ICR mice. The settings on record: for number of colonic ACF: mean ± standard error, control 30.7 ± 3.3.
The conditions of series [4]: literature statement; cited from earlier work.
Where [5] appears, read: Y-700 5-20 mg/kg mixed diet, 5 weeks.
The mark [6] stands for this setting: Y-700 10 and 20 mg/kg mixed diet, 10 weeks.
The mark [7] stands for this setting: Y-700 mixed diet 10 and 20 mg/kg diet.

Each structure is given as a SMILES string.

With `CC(C)(C)COc1ccc(-n2cc(C(=O)O)cn2)cc1C#N` [Y-700, 1-(3-cyano-4-neopentyloxyphenyl)pyrazole-4-carboxylic acid], the “change in production amount of lipid peroxide attributable to addition of Y-700” value in series [1] (0.5-20 μg/ml) is “No change”. Further, the antioxidative effect result in series [1] (conclusion in words) is “no antioxidative effect”. In addition, the “number of colonic ACF” value in series [2] (Y-700 5 mg/kg diet, 5 weeks) came out at 7.0 ± 1.3 n/mice; in series [2] (Y-700 10 mg/kg diet, 5 weeks), 7.0 ± 0.7 n/mice; in series [2] (Y-700 15 mg/kg diet, 5 weeks), 6.5 ± 0.6 n/mice; in series [2] (Y-700 20 mg/kg diet, 5 weeks) it was 5.5 ± 0.7 n/mice; in series [3] (Y-700 10 mg/kg diet, 10 weeks) it was 20.7 ± 2.0 n/mouse; in series [3] (Y-700 20 mg/kg diet, 10 weeks), 22.9 ± 1.4 n/mouse. The body weight came to 40.4 ± 1.2 g in series [2] (Y-700 5 mg/kg diet), 39.9 ± 1.4 g in series [2] (Y-700 10 mg/kg diet), 40.3 ± 0.9 g in series [2] (Y-700 15 mg/kg diet) and 39.9 ± 1.0 g in series [2] (Y-700 20 mg/kg diet). Further, the “body weight change attributable to Y-700 administration” value in series [2] (setting [5]) and in series [3] (setting [6]) was “nor was observed body weight change” in each case. For the same compound, the feed intake entry in series [2] (setting [5]) and in series [3] (setting [6]) was “No change” each time. The “number of colonic ACF, trend” value in series [2] (Y-700 mixed diet 5-20 mg/kg diet) is listed as “dose-dependent decreases”. In addition, in series [2] (conclusion in words), the “effect on the increase in the number of colonic ACF induced by azoxymethane” value is on record as “suppressive effect”. The “cell growth rate of the surrounding areas, change in words” value in series [3] (setting [7]) is given as “significant decreases”. Also, the “number of colonic ACF, change in words” value in series [3] (setting [7]) is listed as “significant decreases”. Moreover, the “radical removing (scavenging) effect” value in series [4] is recorded as “free of radical scavenging effect”.

As for `Oc1ncnc2[nH]ncc12` [allopurinol, reference compound], in series [4], the “radical removing (scavenging) effect” value is reported as “shows a radical removing (scavenging) effect”.
